From publication PMC2605449, “Modification of carbonic anhydrase II with acetaldehyde, the first metabolite of ethanol, leads to decreased enzyme activity” (BMC Biochemistry, 2008)

Target: T1, recombinant human CA II (carbonic anhydrase isozyme II) (Homo sapiens, UniProt P00918, S2A)
T1 construct: gene CA2; recombinant in E. coli, full length, initiator Met removed, second residue Ser changed to Ala by cloning
Assay: end-point titration (Maren) with spectrophotometric colour determination
Assay type: biochemical
Conditions: covalent; pretreated […] h at […] °C, […] NaBH3(CN) added after […] h (N-ethyllysine adducts); CO2 substrate, ice-cold

% reduction in activity at 100 mM: 23.7%
Compound: CC=O [acetaldehyde]
